From ChEMBL document CHEMBL5370603, “N-(2-Aminophenyl)-benzamide Inhibitors of Class I HDAC Enzymes with Antiproliferative and Antifibrotic Activity” (J Med Chem, 2023)
The source made the active and inactive calls. The calls are words filed in the database; no cut-off is given here.

How the values were obtained:
Histone deacetylase 1 [1] = biological target: T1, Histone deacetylase 1 (Homo sapiens, UniProt Q13547); assay: Inhibition of human recombinant HDAC1 using Ac-Leu-Gly-Lys(Ac)-AMC as substrate preincubated with enzyme for 30 mins followed by substrate addition and measured after 90 mins by fluorescence based analysis
[2] = biological target: T2, Protein deacetylase HDAC6 (Homo sapiens, UniProt Q9UBN7); assay: Inhibition of C-terminal FLAG-tagged human recombinant full length HDAC6 expressed in baculovirus expression system using Boc-Lys(Ac)-AMC as substrate preincubated with enzyme for 15 mins followed by substrate addition and measured after 60 mins by fluorescence based analysis
T2 sequence (Q9UBN7 whole entry): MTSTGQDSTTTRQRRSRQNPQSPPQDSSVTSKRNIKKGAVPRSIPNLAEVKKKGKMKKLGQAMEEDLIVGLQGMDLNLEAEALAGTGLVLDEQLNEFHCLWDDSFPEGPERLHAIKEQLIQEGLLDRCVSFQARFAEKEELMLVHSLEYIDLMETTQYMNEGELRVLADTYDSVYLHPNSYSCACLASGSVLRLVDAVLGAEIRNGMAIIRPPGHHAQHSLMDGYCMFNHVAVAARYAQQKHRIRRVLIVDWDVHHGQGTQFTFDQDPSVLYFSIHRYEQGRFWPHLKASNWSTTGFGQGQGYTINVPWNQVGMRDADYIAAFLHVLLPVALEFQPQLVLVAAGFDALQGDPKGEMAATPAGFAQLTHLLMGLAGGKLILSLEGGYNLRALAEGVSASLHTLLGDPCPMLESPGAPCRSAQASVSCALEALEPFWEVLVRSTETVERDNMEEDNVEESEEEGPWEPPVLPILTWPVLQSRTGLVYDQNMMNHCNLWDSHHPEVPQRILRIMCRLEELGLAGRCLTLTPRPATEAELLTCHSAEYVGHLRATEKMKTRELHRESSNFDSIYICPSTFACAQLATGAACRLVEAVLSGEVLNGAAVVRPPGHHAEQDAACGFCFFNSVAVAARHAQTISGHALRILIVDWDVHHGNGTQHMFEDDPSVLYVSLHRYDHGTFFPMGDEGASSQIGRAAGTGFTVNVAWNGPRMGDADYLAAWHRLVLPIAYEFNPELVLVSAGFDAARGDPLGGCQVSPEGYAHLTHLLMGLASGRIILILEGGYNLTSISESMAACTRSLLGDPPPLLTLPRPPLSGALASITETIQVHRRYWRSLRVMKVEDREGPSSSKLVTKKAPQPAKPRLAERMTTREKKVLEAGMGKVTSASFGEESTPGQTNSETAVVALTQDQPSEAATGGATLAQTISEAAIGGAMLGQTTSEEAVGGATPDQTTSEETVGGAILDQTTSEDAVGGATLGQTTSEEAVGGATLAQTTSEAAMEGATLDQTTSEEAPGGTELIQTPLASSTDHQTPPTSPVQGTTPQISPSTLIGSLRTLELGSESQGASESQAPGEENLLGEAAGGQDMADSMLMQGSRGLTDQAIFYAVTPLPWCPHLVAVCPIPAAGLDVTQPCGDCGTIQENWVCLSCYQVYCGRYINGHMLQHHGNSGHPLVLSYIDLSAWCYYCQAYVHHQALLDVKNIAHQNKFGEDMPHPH

A549 = assay: Antiproliferative activity against human A549 cells assessed as inhibition of cell growth incubated for 72 hrs by MTT assay; assay type: functional, cell-based; details: A549, 72 h
SF-268 = assay: Antiproliferative activity against human SF-268 cells assessed as inhibition of cell growth incubated for 72 hrs by MTT assay; assay type: functional, cell-based; details: SF-268, 72 h
Histone deacetylase 2 = Histone deacetylase 2 (Homo sapiens, UniProt Q92769); assay: Inhibition of human recombinant HDAC2 using Ac-Leu-Gly-Lys(Ac)-AMC as substrate preincubated with enzyme for 30 mins followed by substrate addition and measured after 90 mins by fluorescence based analysis
Caco-2 = assay: Antiproliferative activity against human Caco-2 cells assessed as inhibition of cell growth incubated for 72 hrs by MTT assay; assay type: functional, cell-based; details: Caco-2, 72 h
Histone deacetylase 3 = Histone deacetylase 3 (Homo sapiens, UniProt O15379); assay: Inhibition of human recombinant HDAC3 using Ac-Leu-Gly-Lys(Ac)-AMC as substrate preincubated with enzyme for 30 mins followed by substrate addition and measured after 90 mins by fluorescence based analysis
Histone deacetylase 8 = biological target: T3, Histone deacetylase 8 (Homo sapiens, UniProt Q9BY41); assay: Inhibition of C-terminal His-tagged human recombinant full length HDAC8 (1 to 377 residues) expressed in Sf9 cells using Ac-Leu-Gly-Lys(trifluoroAc)-AMC as substrate preincubated with enzyme for 30 mins followed by substrate addition and measured after 90 mins by fluorescence based analysis
T3 sequence (Q9BY41 whole entry): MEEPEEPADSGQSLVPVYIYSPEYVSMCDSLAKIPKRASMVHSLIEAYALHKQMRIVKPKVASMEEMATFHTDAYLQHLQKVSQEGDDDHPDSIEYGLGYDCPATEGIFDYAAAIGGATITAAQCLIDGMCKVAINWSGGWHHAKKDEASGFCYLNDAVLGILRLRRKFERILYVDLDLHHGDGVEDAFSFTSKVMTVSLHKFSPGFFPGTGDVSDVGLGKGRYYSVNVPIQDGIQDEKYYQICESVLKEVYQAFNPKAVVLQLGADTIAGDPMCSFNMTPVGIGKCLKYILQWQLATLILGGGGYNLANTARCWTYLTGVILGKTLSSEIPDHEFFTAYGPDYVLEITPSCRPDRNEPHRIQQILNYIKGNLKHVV

Histone deacetylase 4 = Histone deacetylase 4 (Homo sapiens, UniProt P56524); assay: Inhibition of N-terminal GST-tagged/C-terminal His tagged human recombinant HDAC4 (627 to 1084 residues) expressed in baculovirus-infected Sf9 cells using Ac-Leu-Gly-Lys(trifluoroAc)-AMC as substrate preincubated with enzyme for 15 mins followed by substrate addition and measured after 60 mins by fluorescence based analysis
[3] = biological target: T4, Class 1 histone deacetylase (Homo sapiens) (UniProt Q13547+O15379+Q92769+Q9BY41); assay: Inhibition of class I HDAC in human A549 cells assessed as increase in histone H3 acetylation at 5 uM incubated for 48 hrs by immunoblot analysis; assay type: cell-based
[4] = biological target: T5, Protein deacetylase HDAC6 (Homo sapiens) (UniProt Q9UBN7); assay: Inhibition of HDAC6 in human A549 cells assessed as increase in acetylated alpha-tubulin level at 5 uM incubated for 48 hrs by immunoblot analysis; assay type: cell-based
T5 sequence (whole entry): T2 sequence (Q9UBN7 whole entry)

[5] = biological target: T4, Class 1 histone deacetylase (Homo sapiens); assay: Inhibition of class I HDAC in human A549 cells assessed as downregulation of EGFR gene expression at 5 uM incubated for 48 hrs by qRT-PCR analysis; assay type: cell-based
[6] = biological target: T4, Class 1 histone deacetylase (Homo sapiens); assay: Inhibition of class I HDAC in human A549 cells assessed as downregulation of ERBB2 gene expression at 5 uM incubated for 48 hrs by qRT-PCR analysis; assay type: cell-based
[7] = biological target: T4, Class 1 histone deacetylase (Homo sapiens); assay: Inhibition of class I HDAC in human A549 cells assessed as downregulation of STAT3 gene expression at 5 uM incubated for 48 hrs by qRT-PCR analysis; assay type: cell-based
[8] = biological target: T4, Class 1 histone deacetylase (Homo sapiens); assay: Inhibition of class I HDAC in human A549 cells assessed as downregulation of MYC gene expression at 5 uM incubated for 48 hrs by qRT-PCR analysis; assay type: cell-based
[9] = biological target: T4, Class 1 histone deacetylase (Homo sapiens); assay: Inhibition of class I HDAC in human A549 cells assessed as downregulation of EGFR protein expression at 5 uM incubated for 48 hrs by western blot analysis; assay type: cell-based
Histone deacetylase 1 [10] = biological target: T1, Histone deacetylase 1; assay: Inhibition of human recombinant HDAC1 using Ac-Leu-Gly-Lys(Ac)-AMC as substrate preincubated with enzyme for 30 mins followed by substrate addition and measured after 90 mins by fluorescence based analysis relative to control; details: time 120.0 min

T1 sequence (Q13547 whole entry): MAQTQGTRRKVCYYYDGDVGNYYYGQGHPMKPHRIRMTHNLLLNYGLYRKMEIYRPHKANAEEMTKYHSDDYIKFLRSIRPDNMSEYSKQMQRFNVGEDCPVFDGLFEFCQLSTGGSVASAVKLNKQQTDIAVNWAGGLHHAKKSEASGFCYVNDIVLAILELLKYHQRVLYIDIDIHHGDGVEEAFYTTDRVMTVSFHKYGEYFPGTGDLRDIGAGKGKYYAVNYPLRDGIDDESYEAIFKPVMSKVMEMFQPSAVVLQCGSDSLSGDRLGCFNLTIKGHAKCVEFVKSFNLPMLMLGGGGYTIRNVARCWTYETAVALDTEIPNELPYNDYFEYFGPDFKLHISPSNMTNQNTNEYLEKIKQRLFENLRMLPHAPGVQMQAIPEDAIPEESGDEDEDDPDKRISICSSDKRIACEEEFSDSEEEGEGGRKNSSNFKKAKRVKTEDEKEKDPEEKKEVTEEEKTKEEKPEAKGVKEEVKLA
Chain of Histone deacetylase 3 (O15379 whole entry, the tested form may be a part): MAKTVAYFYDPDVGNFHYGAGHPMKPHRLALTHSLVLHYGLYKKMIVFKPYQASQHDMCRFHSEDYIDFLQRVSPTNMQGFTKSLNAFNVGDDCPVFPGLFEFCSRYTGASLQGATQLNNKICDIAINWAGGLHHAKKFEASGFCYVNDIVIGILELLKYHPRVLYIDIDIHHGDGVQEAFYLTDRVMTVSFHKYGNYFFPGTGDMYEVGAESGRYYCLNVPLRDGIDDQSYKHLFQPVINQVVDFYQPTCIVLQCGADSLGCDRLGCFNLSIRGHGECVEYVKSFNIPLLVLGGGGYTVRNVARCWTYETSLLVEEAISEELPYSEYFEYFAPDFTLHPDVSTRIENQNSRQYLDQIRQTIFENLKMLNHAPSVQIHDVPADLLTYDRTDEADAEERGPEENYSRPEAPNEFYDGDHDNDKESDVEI
Chain of Histone deacetylase 2 (Q92769 whole entry): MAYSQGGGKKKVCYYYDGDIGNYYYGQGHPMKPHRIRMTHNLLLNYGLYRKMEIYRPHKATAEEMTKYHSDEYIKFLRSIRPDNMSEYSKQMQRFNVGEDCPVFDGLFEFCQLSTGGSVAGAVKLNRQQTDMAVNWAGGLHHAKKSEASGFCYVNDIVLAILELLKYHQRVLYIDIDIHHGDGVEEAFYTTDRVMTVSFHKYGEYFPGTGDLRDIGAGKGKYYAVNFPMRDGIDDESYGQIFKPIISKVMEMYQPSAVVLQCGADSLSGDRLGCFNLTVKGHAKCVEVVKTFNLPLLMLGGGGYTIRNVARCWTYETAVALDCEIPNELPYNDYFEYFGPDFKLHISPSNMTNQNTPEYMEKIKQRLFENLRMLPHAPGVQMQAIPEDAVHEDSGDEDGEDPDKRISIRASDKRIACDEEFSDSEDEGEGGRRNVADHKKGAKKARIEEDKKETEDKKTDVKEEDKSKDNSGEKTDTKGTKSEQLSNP
Chain of Histone deacetylase 4 (P56524 whole entry, the tested form may be a part): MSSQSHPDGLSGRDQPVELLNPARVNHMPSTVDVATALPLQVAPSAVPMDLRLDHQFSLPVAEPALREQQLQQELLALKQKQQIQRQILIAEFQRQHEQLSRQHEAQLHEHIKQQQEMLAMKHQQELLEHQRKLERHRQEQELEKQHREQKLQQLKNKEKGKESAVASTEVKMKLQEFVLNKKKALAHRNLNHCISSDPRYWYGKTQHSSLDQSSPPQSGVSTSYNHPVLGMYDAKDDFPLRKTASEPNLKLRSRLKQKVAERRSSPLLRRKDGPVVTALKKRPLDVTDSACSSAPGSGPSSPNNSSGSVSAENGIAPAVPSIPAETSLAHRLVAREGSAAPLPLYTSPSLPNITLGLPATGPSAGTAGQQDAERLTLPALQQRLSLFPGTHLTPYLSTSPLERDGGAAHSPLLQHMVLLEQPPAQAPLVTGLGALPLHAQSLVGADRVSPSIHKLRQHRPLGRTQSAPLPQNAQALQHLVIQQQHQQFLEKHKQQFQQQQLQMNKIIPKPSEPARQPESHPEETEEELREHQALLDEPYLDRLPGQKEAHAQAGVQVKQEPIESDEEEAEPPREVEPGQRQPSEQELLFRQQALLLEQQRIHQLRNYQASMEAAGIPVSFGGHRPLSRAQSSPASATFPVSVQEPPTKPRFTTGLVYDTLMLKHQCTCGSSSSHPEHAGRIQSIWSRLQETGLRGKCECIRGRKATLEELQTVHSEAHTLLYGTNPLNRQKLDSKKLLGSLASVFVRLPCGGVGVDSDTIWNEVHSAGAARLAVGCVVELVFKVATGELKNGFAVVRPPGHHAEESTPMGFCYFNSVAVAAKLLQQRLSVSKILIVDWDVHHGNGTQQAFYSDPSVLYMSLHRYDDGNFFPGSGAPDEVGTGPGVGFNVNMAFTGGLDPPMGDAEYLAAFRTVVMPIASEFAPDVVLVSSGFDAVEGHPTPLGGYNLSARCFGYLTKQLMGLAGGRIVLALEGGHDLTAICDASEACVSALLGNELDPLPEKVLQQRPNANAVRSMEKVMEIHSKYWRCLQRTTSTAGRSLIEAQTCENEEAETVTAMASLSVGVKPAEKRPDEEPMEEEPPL

| SMILES | IC50 (Histone deacetylase 1 [1]) | IC50 [2] | IC50 (A549) | IC50 (Histone deacetylase 2) | IC50 (SF-268) | other results |
| --- | --- | --- | --- | --- | --- | --- |
| O=C(Nc1ccccc1)c1ccc(COc2ccc(CNC(=O)[C@@H]3CCC(=O)N3Cc3ccccc3)cc2)cc1 | > 10000 nM | > 10 µM | > 25 µM | – | > 25 µM | – |
| Nc1ccccc1NC(=O)c1ccc(COc2ccc(CNC(=O)[C@@H]3CCC(=O)N3Cc3ccc(F)cc3)cc2)cc1 | 216 nM | > 100 µM | 6.9 µM | 348 nM | 6.5 µM | IC50 (Caco-2): 1900 nM |
| O=C(NO)c1ccc(COc2ccc(CNC(=O)[C@@H]3CCC(=O)N3Cc3ccccc3)cc2)cc1 | 1980 nM | 0.143 µM | > 25 µM | – | – | – |
| CC(C)(C)OC(=O)NCc1ccc(OCc2ccc(C(=O)Nc3ccccc3N)cc2)cc1 | 1710 nM | > 10 µM | 14.6 µM | – | 8.6 µM | – |
| Nc1ccccc1NC(=O)c1ccc(COc2ccc(CNC(=O)[C@@H]3CCCN3C(=O)c3ccccc3)cc2)cc1 | 216 nM | > 10 µM | 16 µM | – | 9.2 µM | – |
| O=C(O)c1ccc(COc2ccc(CNC(=O)[C@@H]3CCC(=O)N3Cc3ccccc3)cc2)cc1 | > 10000 nM | > 10 µM | > 25 µM | – | > 25 µM | – |
| Nc1ccccc1NC(=O)c1ccc(COc2ccc(CNC(=O)[C@@H]3CCCN3C(=O)OCc3ccccc3)cc2)cc1 | 202 nM | > 10 µM | > 25 µM | – | 12.7 µM | – |
| O=C(O)c1ccc(COc2ccc(CNC(=O)[C@@H]3CCC(=O)N3Cc3ccc(Br)cc3)cc2)cc1 | > 10000 nM | > 10 µM | > 25 µM | – | > 25 µM | – |
| Nc1ccccc1NC(=O)c1ccc(COc2ccc(NC(=O)[C@@H]3CCC(=O)N3Cc3ccccc3)cc2)cc1 | 430 nM | > 10 µM | > 25 µM | – | > 25 µM | inhibition (Histone deacetylase 1 [10]): 75% |
| O=C(NCc1ccc(OCc2ccc(B(O)O)cc2)cc1)[C@@H]1CCC(=O)N1Cc1ccccc1 | > 10000 nM | > 10 µM | > 25 µM | – | > 25 µM | – |
| O=C(O)c1ccc(COc2ccc(CNC(=O)[C@@H]3CCCN3Cc3ccccc3)cc2)cc1 | > 10000 nM | > 10 µM | > 25 µM | – | > 25 µM | – |
| O=C(NCc1ccccc1)c1ccc(COc2ccc(CNC(=O)[C@@H]3CCC(=O)N3Cc3ccccc3)cc2)cc1 | > 10000 nM | > 10 µM | > 25 µM | – | > 25 µM | – |

The remaining compounds from weak to strong by IC50 (Histone deacetylase 1 [1]), led by results:

| IC50 (Histone deacetylase 1 [1]) | IC50 [2] | IC50 (A549) | IC50 (Histone deacetylase 2) | SMILES | IC50 (SF-268) | other results |
| --- | --- | --- | --- | --- | --- | --- |
| 200 nM | > 10 µM | 6.8 µM | – | Nc1ccccc1NC(=O)c1ccc(COc2ccc(CNC(=O)c3ccccn3)cc2)cc1 | 9.8 µM | – |
| 182 nM | > 10 µM | 5.2 µM | – | Nc1ccccc1NC(=O)c1ccc(COc2ccc(CNC(=O)c3cc4ccccc4[nH]3)cc2)cc1 | 16.5 µM | – |
| 130 nM | > 100 µM | 5.1 µM | 196 nM | Nc1ccccc1NC(=O)c1ccc(COc2ccc(CNC(=O)[C@@H]3CCCN3Cc3ccc(F)cc3)cc2)cc1 | 4.8 µM | – |
| 113 nM | > 100 µM | 3.7 µM | 192 nM | Nc1ccccc1NC(=O)c1ccc(COc2ccc(CNC(=O)[C@@H]3CCCN3Cc3ccccc3)cc2)cc1 | 3.4 µM | IC50 (Histone deacetylase 3): 387 nM; IC50 (Histone deacetylase 8): > 10 µM; IC50 (Histone deacetylase 4): > 100 µM; IC50 (Caco-2): 1900 nM; inhibition [3]: Active; inhibition [4]: inactive; inhibition [5]: Active; inhibition [6]: inactive; inhibition [7]: inactive; inhibition [8]: inactive; inhibition [9]: Active |
| 111 nM | > 10 µM | > 25 µM | – | Nc1ccccc1NC(=O)c1ccc(COc2ccc(CNC(=O)C3CCCO3)cc2)cc1 (stereo not given) | > 25 µM | inhibition (Histone deacetylase 1 [10]): 75% |
| 100 nM | > 10 µM | > 25 µM | – | NCc1ccc(OCc2ccc(C(=O)Nc3ccccc3N)cc2)cc1 | 8.5 µM | IC50 (Histone deacetylase 3): 52 nM; IC50 (Histone deacetylase 8): > 10 µM; IC50 (Histone deacetylase 4): > 100 µM |
| 93 nM | > 100 µM | 4.7 µM | 83 nM | Nc1ccccc1NC(=O)c1ccc(COc2ccc(CNC(=O)[C@H]3CCCN3Cc3ccccc3)cc2)cc1 | 3.1 µM | – |
| 92 nM | > 100 µM | 3.9 µM | 143 nM | Nc1ccccc1NC(=O)c1ccc(COc2ccc(CNC(=O)[C@H]3CCC(=O)N3Cc3ccccc3)cc2)cc1 | 3.4 µM | IC50 (Histone deacetylase 3): 431 nM; IC50 (Histone deacetylase 8): > 10 µM; IC50 (Histone deacetylase 4): > 100 µM; IC50 (Caco-2): 1900 nM; inhibition [3]: Active; inhibition [4]: inactive; inhibition [5]: Active; inhibition [6]: inactive; inhibition [7]: inactive; inhibition [8]: inactive; inhibition [9]: Active |
| 84 nM | > 100 µM | 15 µM | 217 nM | Nc1ccccc1NC(=O)c1ccc(COc2ccc(CN3C(=O)CC[C@H]3CC(=O)NCc3ccccc3)cc2)cc1 | 7.1 µM | – |
| 55 nM | > 100 µM | 10 µM | 72 nM | Nc1ccccc1NC(=O)c1ccc(COc2ccc(CNC(=O)[C@@H]3CCCN3)cc2)cc1 | 3.3 µM | IC50 (Histone deacetylase 3): 61 nM; IC50 (Histone deacetylase 8): > 10 µM; IC50 (Histone deacetylase 4): > 100 µM |
| 51 nM | > 100 µM | 9.2 µM | 82 nM | Nc1ccccc1NC(=O)c1ccc(COc2ccc(CNC(=O)[C@@H]3CCC(=O)N3Cc3ccc(Br)cc3)cc2)cc1 | 6.6 µM | – |
